The source of these data is patent US20120231042A1, “Pharmaceutical Formulation For Producing Rapidly Disintegrating Tablets” (BASF SE, priority 2011, published 2012).

The nature of this data set: Film formation test. The data set is classed as physicochemical. The following applies: assessed visually; for Clear film / Notes (film-forming classification): 15% by weight solution in water, dried at 45° C. for 4 hours; for Structure formed after drying (film-forming property): 15% solution dried 4 hours at 45° C., statement in description. As to the method:
In various embodiments, to determine the film-forming property, 30.0 g of a 15% strength by weight solution of the sugar or sugar alcohol in water are first prepared at 23° C. This solution is poured out onto glass plates with an indentation (dimension: 20 cm×6.5 cm, indentation 0.3 cm) and dried for 4 hours at 45° C. and then assessed visually. Measurement can take place in ambient air. The ambient air here has a relative humidity of about 40% at 23° C. Drying can take place for example, on the heating plate of a film-drawing instrument. A suitable film-drawing instrument is for example a commercial instrument such as the COATMASTER 509 MC.
Products which are present after the drying operation as a clear film or covering are referred to as “film-forming” If crystals are visible and the mass appears powdery, the substances are classified as “non-film-forming”
To determine the film-forming property, firstly, at 23° C., 30.0 g of a 15% strength by weight solution of the sugar or sugar alcohol in water were prepared. This solution was poured onto glass plates with an indentation (dimension: 20 cm×6.5 cm, indentation 0.3 cm) and dried at 45° C. for 4 hours and then assessed visually. […] Drying was carried out on a heating plate of the film-drawing instrument COATMASTER 509 MC (Erichsen).

On to `OC[C@@H](O)[C@@H](O)[C@H](O)[C@@H](O)CO` [Sorbitol], for which the Clear film entry is on record as “Yes”, the “Notes (film-forming classification)” value is “Film-forming” and the “Structure formed after drying (film-forming property)” value (“Structure formed after drying” below) is recorded as “clear film/covering”.
Palatinit: the Clear film result was “Yes”, the “Notes (film-forming classification)” value is on record as “Film-forming” and the “Structure formed after drying” value is reported as “clear film/covering”.
For `OC[C@@H](O)[C@@H](O[C@@H]1O[C@H](CO)[C@H](O)[C@H](O)[C@H]1O)[C@H](O)[C@@H](O)CO` [Lactitol], the Clear film result is on record as “Yes”, the “Notes (film-forming classification)” value was “Film-forming” and the “Structure formed after drying” value is on record as “clear film/covering”.
`OC[C@H]1O[C@@H](O[C@H]2[C@H](O)[C@@H](O)C(O)O[C@@H]2CO)[C@H](O)[C@@H](O)[C@H]1O` (stereo partly drawn) [lactose]: the “Structure formed after drying” value is listed as “clear film/covering”.
In the case of `OC[C@H]1O[C@@](CO)(O[C@H]2O[C@H](CO)[C@@H](O)[C@H](O)[C@H]2O)[C@@H](O)[C@@H]1O` [sucrose], the “Structure formed after drying” value is given as “clear film/covering”.
Take `OC[C@@H](O)[C@@H](O)CO` [Erythritol]: the Clear film result is reported as “No”, the “Notes (film-forming classification)” value is listed as “Crystals; non-film-forming” and the “Structure formed after drying” value is listed as “crystals or a powdery structure”.
As to `OC[C@@H](O)[C@@H](O[C@H]1O[C@H](CO)[C@@H](O)[C@H](O)[C@H]1O)[C@H](O)[C@@H](O)CO` [Maltitol], the Clear film result is given as “Yes”, the “Notes (film-forming classification)” value is reported as “Film-forming” and the “Structure formed after drying” value is “clear film/covering”.
Consider `OC[C@H]1O[C@H](O[C@H]2O[C@H](CO)[C@@H](O)[C@H](O)[C@H]2O)[C@H](O)[C@@H](O)[C@@H]1O` [trehalose], for which the “Structure formed after drying” value was “clear film/covering”.
Consider `OC[C@@H](O)[C@@H](O)[C@H](O)[C@H](O)CO` [Mannitol], for which the Clear film entry is reported as “No”, the “Notes (film-forming classification)” value was “Crystals; non-film-forming” and the “Structure formed after drying” value is “crystals or a powdery structure”.
For `OC[C@@H](O)[C@H](O)[C@@H](O)CO` [Xylitol], the Clear film entry was “No”, the “Notes (film-forming classification)” value was “Crystals; non-film-forming” and the “Structure formed after drying” value is “crystals or a powdery structure”.
